Results reported in ChEMBL document CHEMBL1909046, “DrugMatrix in vitro pharmacology data”.

What was measured:
[1] = molecular target: cGMP-specific 3',5'-cyclic phosphodiesterase (Homo sapiens, UniProt O76074); experiment: DRUGMATRIX: Phosphodiesterase PDE5 enzyme inhibition (substrate: [3H]cGMP + cGMP); type: tissue-based, Platelet; details: platelet; Not Active = under 50% inhibition at 10 µM
Leukotriene C4 synthase = molecular target: T1, Leukotriene C4 synthase (Cavia porcellus, UniProt A6XA80); experiment: biochemical; type: tissue-based, Lung;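 note: enzyme inhibition assay of leukotriene C4 synthase, using LTA4 as the substrate; in other assays of this panel Not Active means under 50% inhibition at 10 µM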
T1 sequence (A6XA80 whole entry): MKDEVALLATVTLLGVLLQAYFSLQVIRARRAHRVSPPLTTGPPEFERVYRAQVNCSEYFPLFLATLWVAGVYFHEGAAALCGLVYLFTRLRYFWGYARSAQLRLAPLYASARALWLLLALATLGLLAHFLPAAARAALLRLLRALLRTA

Adenosine receptor A3 = molecular target: T2, Adenosine receptor A3 (Homo sapiens, UniProt P0DMS8); type: cell membranes, CHO-K1, Membrane;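 note: radioligand binding assay with AB-MECA serving as the labeled ligand; in other assays of this panel Not Active means under 50% inhibition at 10 µM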
T2 sequence (P0DMS8 whole entry): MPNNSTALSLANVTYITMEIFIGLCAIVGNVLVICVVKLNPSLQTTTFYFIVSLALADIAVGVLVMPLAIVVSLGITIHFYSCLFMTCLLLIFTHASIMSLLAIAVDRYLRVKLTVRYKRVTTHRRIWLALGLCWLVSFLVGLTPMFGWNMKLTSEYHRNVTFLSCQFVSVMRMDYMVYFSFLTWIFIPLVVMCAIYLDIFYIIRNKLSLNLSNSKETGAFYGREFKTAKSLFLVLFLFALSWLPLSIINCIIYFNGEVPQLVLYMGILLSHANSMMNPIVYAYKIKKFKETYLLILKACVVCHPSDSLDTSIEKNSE

Glycine receptor = Glycine receptor (Rattus norvegicus, UniProt P22771+P24524+P07727+P20781); type: cell membranes, Wistar, Spinal cord, Membrane; note: in other assays of this panel Not Active means under 50% inhibition at 10 µM
[2] = DRUGMATRIX: Glutamate, Kainate radioligand binding (ligand: [3H] Kainic acid); type: cell membranes, Rattus norvegicus, Wistar, Brain, Membrane; details: Not Active = under 50% inhibition at 10 µM
Vasopressin V1a receptor = Vasopressin V1a receptor (Homo sapiens, UniProt P37288); type: cell membranes, Membrane; details: hek293; note: in other assays of this panel Not Active means under 50% inhibition at 10 µM
Chain of Vasopressin V1a receptor (P37288 whole entry): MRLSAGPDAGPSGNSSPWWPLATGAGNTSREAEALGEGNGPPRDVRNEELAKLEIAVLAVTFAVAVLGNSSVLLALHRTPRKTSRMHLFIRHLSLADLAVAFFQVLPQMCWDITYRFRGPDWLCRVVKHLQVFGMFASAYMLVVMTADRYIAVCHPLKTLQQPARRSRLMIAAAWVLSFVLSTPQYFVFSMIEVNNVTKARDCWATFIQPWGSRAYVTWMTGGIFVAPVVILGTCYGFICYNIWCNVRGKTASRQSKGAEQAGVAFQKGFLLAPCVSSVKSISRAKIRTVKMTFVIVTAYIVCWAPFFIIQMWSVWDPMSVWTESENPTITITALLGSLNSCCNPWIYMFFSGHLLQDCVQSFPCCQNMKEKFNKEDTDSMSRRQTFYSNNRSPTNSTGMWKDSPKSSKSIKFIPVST

[3] = DRUGMATRIX: Leukotriene, BLT (LTB4) radioligand binding (ligand: [3H]LTB4); type: cell membranes, Membrane; details: u-937; Not Active = under 50% inhibition at 10 µM
D(4) dopamine receptor = molecular target: T3, D(4) dopamine receptor (Homo sapiens, UniProt P21917); experiment: DRUGMATRIX: Dopamine D4.2 radioligand binding (ligand: [3H] Spiperone); type: cell membranes, CHO-K1, Membrane; details: cho-k1; Not Active = under 50% inhibition at 10 µM
T3 sequence (P21917 whole entry): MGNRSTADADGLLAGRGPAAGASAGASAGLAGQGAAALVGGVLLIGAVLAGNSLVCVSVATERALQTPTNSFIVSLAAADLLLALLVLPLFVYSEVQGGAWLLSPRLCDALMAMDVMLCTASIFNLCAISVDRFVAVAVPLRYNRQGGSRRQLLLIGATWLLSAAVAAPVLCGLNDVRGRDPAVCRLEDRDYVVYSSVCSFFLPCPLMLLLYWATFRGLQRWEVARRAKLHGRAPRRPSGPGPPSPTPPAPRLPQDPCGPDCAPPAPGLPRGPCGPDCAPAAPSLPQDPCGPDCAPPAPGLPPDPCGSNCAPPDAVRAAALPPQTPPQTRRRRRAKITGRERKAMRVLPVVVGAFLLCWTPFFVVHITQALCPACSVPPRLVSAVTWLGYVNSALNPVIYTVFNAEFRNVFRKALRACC

Histamine H2 receptor = Histamine H2 receptor (Homo sapiens, UniProt P25021); type: cell membranes, CHO-K1, Membrane; details: cho-k1; note: in other assays of this panel Not Active means under 50% inhibition at 10 µM
Chain of Histamine H2 receptor (P25021 whole entry): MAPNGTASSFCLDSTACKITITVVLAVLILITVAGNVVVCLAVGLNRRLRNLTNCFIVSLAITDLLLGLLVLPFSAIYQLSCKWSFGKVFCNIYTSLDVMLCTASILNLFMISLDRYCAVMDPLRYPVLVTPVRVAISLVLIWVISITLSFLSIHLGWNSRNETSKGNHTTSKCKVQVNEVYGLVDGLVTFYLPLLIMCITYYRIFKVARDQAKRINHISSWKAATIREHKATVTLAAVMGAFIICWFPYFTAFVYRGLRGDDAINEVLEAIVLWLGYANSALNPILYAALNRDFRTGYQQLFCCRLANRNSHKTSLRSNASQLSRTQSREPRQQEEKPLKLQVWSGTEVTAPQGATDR

[4] = molecular target: T4, Alpha-2A adrenergic receptor (Homo sapiens, UniProt P08913); type: cell membranes, Sf9, Membrane; note: in other assays of this panel Not Active means under 50% inhibition at 10 µM
T4 sequence (P08913 whole entry): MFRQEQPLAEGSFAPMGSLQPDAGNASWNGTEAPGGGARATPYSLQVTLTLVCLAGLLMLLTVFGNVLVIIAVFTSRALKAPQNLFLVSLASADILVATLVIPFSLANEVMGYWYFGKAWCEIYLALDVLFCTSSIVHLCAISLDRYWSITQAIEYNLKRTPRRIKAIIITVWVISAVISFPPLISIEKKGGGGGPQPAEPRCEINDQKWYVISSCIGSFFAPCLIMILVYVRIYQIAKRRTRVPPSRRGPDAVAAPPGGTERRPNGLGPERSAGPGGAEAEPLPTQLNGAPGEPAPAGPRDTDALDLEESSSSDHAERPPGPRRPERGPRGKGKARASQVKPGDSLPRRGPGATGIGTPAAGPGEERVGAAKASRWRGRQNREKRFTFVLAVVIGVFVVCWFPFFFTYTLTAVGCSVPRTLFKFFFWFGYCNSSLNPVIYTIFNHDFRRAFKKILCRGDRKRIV

Structure (SMILES)	IC50 [1]	IC50 (Leukotriene C4 synthase)	IC50 (Adenosine receptor A3; cho-k1)	IC50 (Glycine receptor)	IC50 [2]	Ki [2]	IC50 (Vasopressin V1a receptor)	IC50 [3]	Ki [3]	IC50 (D(4) dopamine receptor)	IC50 (Histamine H2 receptor)	IC50 ([4]; sf9)	other results
CO[C@@H]1[C@@H](O[C@@H]2O[C@H](C)[C@@H](O[C@H]3C[C@@](C)(O)[C@@H](OC(=O)CC(C)C)[C@H](C)O3)[C@H](N(C)C)[C@H]2O)[C@@H](CC=O)C[C@@H](C)[C@@H](O)/C=C/C=C/C[C@@H](C)OC(=O)C[C@H]1O [KITASAMYCIN]	Not Active	Not Active	Not Active	Not Active	Not Active	Not Active	Not Active	Not Active	Not Active	Not Active	Not Active	Not Active	–
C[C@]12Cc3c[nH]nc3C[C@@H]1CC[C@@H]1[C@@H]2CC[C@@]2(C)[C@H]1CC[C@]2(C)O [STANOZOLOL]	Not Active	Not Active	–	Not Active	Not Active	Not Active	Not Active	Not Active	Not Active	Not Active	Not Active	Not Active	IC50 (Adenosine receptor A3; read-out: IC50): 8.33 µM; Ki (Adenosine receptor A3; read-out: Ki): 4.71 µM
CCOC(=O)[C@H](CCc1ccccc1)N[C@@H](C)C(=O)N1[C@H](C(=O)O)C[C@@H]2CCC[C@@H]21	Not Active	Not Active	Not Active	Not Active	Not Active	Not Active	Not Active	Not Active	Not Active	Not Active	Not Active	Not Active	–
CN[C@@H]1[C@@H](O)[C@@H](O[C@@H]2[C@@H](O)[C@H](O[C@H]3OC(CN)=CC[C@H]3N)[C@@H](N)C[C@H]2N)OC[C@]1(C)O [SISOMICIN]	Not Active	Not Active	Not Active	Not Active	Not Active	Not Active	Not Active	Not Active	Not Active	Not Active	Not Active	Not Active	–
Clc1ccc(C(c2ccccc2Cl)C(Cl)Cl)cc1 (configuration not stated) [MITOTANE]	Not Active	Not Active	–	Not Active	Not Active	Not Active	Not Active	Not Active	Not Active	Not Active	Not Active	–	IC50 (Adenosine receptor A3; read-out: IC50): 7.45 µM; Ki (Adenosine receptor A3; read-out: Ki): 4.21 µM; IC50 ([4]; read-out: IC50): 7.35 µM; Ki ([4]; read-out: Ki): 2.75 µM
CN(C)[C@@H]1C(O)=C(C(N)=O)C(=O)[C@@]2(O)C(O)=C3C(=O)c4c(O)cccc4[C@@](C)(O)[C@H]3C[C@@H]12 [TETRACYCLINE]	Not Active	Not Active	Not Active	Not Active	Not Active	Not Active	Not Active	Not Active	Not Active	Not Active	Not Active	Not Active	–
CC(C)(C)NCC(O)c1ccc(O)c(CO)c1 (configuration not stated) [ALBUTEROL]	Not Active	Not Active	Not Active	Not Active	Not Active	Not Active	Not Active	Not Active	Not Active	Not Active	Not Active	Not Active	–
O=C1c2c(O)ccc(O)c2C(=O)c2c(NCCNCCO)ccc(NCCNCCO)c21 [MITOXANTRONE]	Not Active	Not Active	Not Active	Not Active	Not Active	Not Active	Not Active	Not Active	Not Active	Not Active	Not Active	Not Active	–
CC(CCc1ccccc1)NCC(O)c1ccc(O)c(C(N)=O)c1 (configuration not stated) [LABETALOL]	Not Active	Not Active	Not Active	Not Active	Not Active	Not Active	Not Active	Not Active	Not Active	Not Active	Not Active	Not Active	–
CN(N=O)C(=O)N[C@@H](C=O)[C@@H](O)[C@H](O)[C@H](O)CO [STREPTOZOCIN]	Not Active	Not Active	Not Active	Not Active	Not Active	Not Active	Not Active	Not Active	Not Active	Not Active	Not Active	Not Active	–
Nc1nnc(-c2cccc(Cl)c2Cl)c(N)n1 [LAMOTRIGINE]	Not Active	Not Active	Not Active	Not Active	Not Active	Not Active	Not Active	Not Active	Not Active	Not Active	Not Active	Not Active	–
CC(C)(C)NCC(O)c1cc(O)cc(O)c1 (configuration not stated) [TERBUTALINE]	Not Active	Not Active	Not Active	Not Active	Not Active	Not Active	Not Active	Not Active	Not Active	Not Active	Not Active	Not Active	–
O=[N+]([O-])c1cc([As](=O)(O)O)ccc1O [ROXARSONE]	Not Active	Not Active	Not Active	Not Active	Not Active	Not Active	Not Active	Not Active	Not Active	Not Active	Not Active	Not Active	Ki [1]: Not Active; Ki (Leukotriene C4 synthase): Not Active; Ki (Adenosine receptor A3; cho-k1): Not Active; Ki (Glycine receptor): Not Active; Ki (Vasopressin V1a receptor): Not Active; Ki (D(4) dopamine receptor): Not Active; Ki (Histamine H2 receptor): Not Active; Ki ([4]; sf9): Not Active
